Test results as given in ChEMBL document CHEMBL3882724 (2013).

Tests used:
[1] = target: T1, Steroid 17-alpha-hydroxylase/17,20 lyase (Homo sapiens, UniProt P05093); experiment: Inhibition of CYP17 in human testicular microsomes using 17alpha-hydroxypregnenolone as substrate assessed as decrease in DHEA levels after 90 mins by ELISA; parameters: species or system Testis
T1 sequence (P05093 whole entry): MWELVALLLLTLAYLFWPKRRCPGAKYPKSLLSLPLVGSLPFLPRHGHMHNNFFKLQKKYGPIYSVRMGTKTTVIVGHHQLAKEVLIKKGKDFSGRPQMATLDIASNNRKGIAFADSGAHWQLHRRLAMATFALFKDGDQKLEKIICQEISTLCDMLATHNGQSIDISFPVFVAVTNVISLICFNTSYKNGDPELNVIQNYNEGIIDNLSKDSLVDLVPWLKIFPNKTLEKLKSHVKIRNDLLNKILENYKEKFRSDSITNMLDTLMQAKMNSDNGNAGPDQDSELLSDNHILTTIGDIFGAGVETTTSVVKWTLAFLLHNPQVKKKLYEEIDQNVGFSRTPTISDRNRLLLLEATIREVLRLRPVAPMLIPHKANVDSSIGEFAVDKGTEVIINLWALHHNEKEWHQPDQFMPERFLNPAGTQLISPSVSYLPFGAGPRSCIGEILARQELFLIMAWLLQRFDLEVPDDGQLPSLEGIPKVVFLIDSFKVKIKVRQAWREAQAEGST

[2] = Half life in human liver microsomes at 1 uM by LC-MS/MS analysis
[3] = target: T2, CYP21 (steroid 21-hydroxylase) (Homo sapiens, UniProt P08686); experiment: Inhibition of human CYP21 transfected in HEK293 cells assessed as decrease in conversion of progesterone to 11-deoxycorticosterone preincubated for 5 hrs followed by progesterone addition measured after 20 hrs by ELISA; type: cell-based; parameters: concentration or dose not given beside the values; details: HEK293 cells transfected with human CYP21, probe progesterone
T2 sequence (P08686 whole entry): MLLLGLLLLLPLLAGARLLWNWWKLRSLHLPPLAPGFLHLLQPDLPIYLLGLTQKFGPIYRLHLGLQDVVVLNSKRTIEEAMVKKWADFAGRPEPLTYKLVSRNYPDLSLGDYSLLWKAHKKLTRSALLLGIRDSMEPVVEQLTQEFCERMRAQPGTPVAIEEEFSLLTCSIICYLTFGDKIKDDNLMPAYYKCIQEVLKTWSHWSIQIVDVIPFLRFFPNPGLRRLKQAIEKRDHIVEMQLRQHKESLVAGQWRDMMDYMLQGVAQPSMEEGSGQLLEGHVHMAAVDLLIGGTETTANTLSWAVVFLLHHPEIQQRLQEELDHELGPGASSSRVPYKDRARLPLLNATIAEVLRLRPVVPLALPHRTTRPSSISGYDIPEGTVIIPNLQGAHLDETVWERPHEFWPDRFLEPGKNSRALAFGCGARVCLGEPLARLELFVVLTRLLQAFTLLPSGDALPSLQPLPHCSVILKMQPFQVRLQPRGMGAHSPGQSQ

Row | Structure (SMILES) | IC50 [1] | half-life at 1 µM [2] | inhibition at 20 h [3]
1 | C[C@]12CC[C@H]3[C@@H](CC(F)[C@]4(O)C[C@@H](O)CC[C@]34C)[C@@H]1CC=C2c1cccnc1 (some centres not stated) | ≤ 11 nM | 1 to 50 min | ≥ 50%
2 | C[C@]12CC[C@H](O)CC1=CC[C@@H]1[C@@H]2CC[C@]2(C)C(c3cncc(Cl)c3)=CC[C@@H]12 | ≤ 11 nM | 1 to 50 min | ≥ 50%
3 | CC1C[C@H]2[C@@H]3CC=C(c4cccnc4)[C@@]3(C)CC[C@@H]2[C@@]2(C)CC[C@H](O)CC12O (some centres not stated) | ≤ 11 nM |  | ≥ 50%
4 | C[C@]12CCC(=O)CC1C(=O)C[C@@H]1[C@@H]2CC[C@]2(C)C(c3cncc(F)c3)=CC[C@@H]12 (some centres not stated) | ≤ 11 nM |  | ≥ 50%
5 | CC(=O)N[C@@H]1CC[C@@]2(C)C(CC[C@H]3C4=CC=C(c5cccnc5)[C@@]4(C)CC[C@@H]32)C1 (some centres not stated) |  | 1 to 50 min | ≥ 50%
6 | CC(=O)N[C@@H]1CC[C@@]2(C)C(=CC[C@@H]3[C@@H]2CC[C@]2(C)C(c4cncc(F)c4)=CC[C@@H]32)C1 | ≤ 11 nM | 1 to 50 min | ≥ 50%
7 | COc1cncc(C2=CC[C@H]3[C@@H]4CC=C5C[C@H](NC(=O)C6CC6)CC[C@]5(C)[C@H]4CC[C@]23C)c1 | ≤ 11 nM | 1 to 50 min | ≥ 50%
8 | CCCC(=O)N[C@@H]1CC[C@@]2(C)C(=CC[C@@H]3[C@@H]2CC[C@]2(C)C(c4cccnc4)=CC[C@@H]32)C1 | ≤ 11 nM | 1 to 50 min | ≥ 50%
9 | C[C@]1(O)CC[C@@]2(C)C(CC[C@H]3C4=CC=C(c5cccnc5)[C@@]4(C)CC[C@@H]32)C1 (some centres not stated) | ≤ 11 nM | 1 to 50 min | 10 to 50%
10 | C[C@]12CC[C@H]3[C@@H](CC(F)C4(O)CC(=O)CC[C@]34C)[C@@H]1CC=C2c1cncc(F)c1 (some centres not stated) | ≤ 11 nM |  | ≥ 50%
11 | C[C@]12CC[C@@H](NC(=O)C3CCC3)CC1=CC[C@@H]1[C@@H]2CC[C@]2(C)C(n3ccnc3)=CC[C@@H]12 | ≤ 11 nM | 1 to 50 min | ≥ 50%
12 | C[C@]12CC[C@H]3[C@@H](CC=C4C[C@H](O)CC[C@@]43C)C1=CC=C2c1cccnc1 | ≤ 11 nM | 1 to 50 min | ≥ 50%
13 | C[C@]12CC[C@H](O)CC1=CC[C@@H]1[C@@H]2CC[C@]2(C)C(c3cncc(N)c3)=CC[C@@H]12 | ≤ 11 nM | ≥ 50 min | ≥ 50%
14 | C[C@]12CCC(=O)C(O)=C1C=C[C@@H]1[C@@H]2CC[C@]2(C)C(c3cccnc3)=CC[C@@H]12 |  | 1 to 50 min | ≥ 50%
15 | C[C@]12CC[C@H]3[C@@H](CC(F)C4(O)CC(=O)CC[C@]34C)[C@@H]1CC=C2c1cccnc1 (some centres not stated) | ≤ 11 nM |  | ≥ 50%
16 | CC[C@]1(O)CC[C@@]2(C)C(CC[C@@H]3[C@@H]2CC[C@]2(C)C(c4cccnc4)=CC[C@@H]32)C1 (some centres not stated) |  | 1 to 50 min | 10 to 50%
17 | C[C@]12CC[C@H](O)CC1=CC[C@@H]1[C@@H]2CC[C@]2(C)C(c3ccc(F)nc3)=CC[C@@H]12 |  | 1 to 50 min | 10 to 50%
18 | C[C@]12CC[C@H]3[C@@H](CC(F)[C@@]4(O)C[C@@H](O)CC[C@]34C)[C@@H]1CC=C2c1cccnc1 (some centres not stated) | ≤ 11 nM | 1 to 50 min | ≥ 50%
19 | C[C@]12CC[C@H](O)CC1=CC[C@@H]1[C@@H]2CC[C@]2(C)C(c3cccnc3F)=CC[C@@H]12 | ≤ 11 nM | 1 to 50 min | ≥ 50%
20 | C[C@]12CCC(=O)C=C1C(=O)C[C@@H]1[C@@H]2CC[C@]2(C)C(c3cncc(F)c3)=CC[C@@H]12 | ≤ 11 nM |  | ≥ 50%
21 | C[C@]12CCC(=O)C=C1C(F)C[C@@H]1[C@@H]2CC[C@]2(C)C(c3cncc(F)c3)=CC[C@@H]12 (some centres not stated) | ≤ 11 nM | 1 to 50 min | ≥ 50%
22 | C[C@]12CCNC(=O)C=C1C(F)C[C@@H]1[C@@H]2CC[C@]2(C)C(c3cccnc3)=CC[C@@H]12 (some centres not stated) | ≤ 11 nM | 1 to 50 min | ≥ 50%

Row | Structure (SMILES) | IC50 [1] | half-life at 1 µM [2] | inhibition at 20 h [3]
23 | C[C@]12CC[C@@H](NC(=O)C3CCC3)CC1=CC[C@@H]1[C@@H]2CC[C@]2(C)C(c3cccnc3)=CC[C@@H]12 | ≤ 11 nM |  | ≥ 50%
24 | C[C@]12CC[C@H]3[C@@H](CCC4=CC(=O)NCC[C@@]43C)C1=CC=C2c1cncc(C(F)F)c1 | ≤ 11 nM |  | ≥ 50%
25 | C[C@@]1(O)CC[C@@]2(C)C(=CC[C@@H]3[C@@H]2CC[C@]2(C)C(c4cncc(F)c4)=CC[C@@H]32)C1 |  | ≥ 50 min | ≥ 50%
26 | Cc1cncc(C2=CC[C@H]3[C@@H]4CC=C5C[C@H](NC(=O)C6CC6)CC[C@]5(C)[C@H]4CC[C@]23C)c1 | ≤ 11 nM |  | ≥ 50%
27 | C[C@]12CC[C@H]3[C@@H](CC(O)C45CC4CC[C@]35C)C1=CC=C2c1cccnc1 (some centres not stated) | ≤ 11 nM | 1 to 50 min | ≥ 50%
28 | C[C@]12CC[C@H]3[C@@H](CCC4CC(F)(F)CC[C@@]43C)C1=CC=C2c1cccnc1 (some centres not stated) | ≤ 11 nM |  | 
29 | C[C@]12CCC(F)(F)CC1CC[C@@H]1[C@@H]2CC[C@]2(C)C(c3cccnc3)=CC[C@@H]12 (some centres not stated) | ≤ 11 nM |  | 
30 | C[C@]12CC[C@H]3[C@@H](CCC4=CC(=O)CC[C@@]43C)C1=CC=C2c1cncc(N)c1 | ≤ 11 nM |  | 
31 | CC(=O)N[C@@H]1CC[C@@]2(C)C(=CC[C@@H]3[C@@H]2CC[C@]2(C)C(c4cncc(C(F)(F)F)c4)=CC[C@@H]32)C1 |  | 1 to 50 min | 10 to 50%
32 | CC(=O)N[C@@H]1CC[C@@]2(C)C(=CC[C@@H]3[C@@H]2CC[C@]2(C)C(c4cncc(C(F)F)c4)=CC[C@@H]32)C1 | ≤ 11 nM | 1 to 50 min | ≥ 50%
33 | CC(=O)O[C@H]1CC[C@@]2(C)C(=CC[C@H]3C4=CC=C(n5ccnc5)[C@@]4(C)CC[C@@H]32)C1 | ≤ 11 nM |  | 
34 | CC1=C2CC[C@@H]3[C@H](CC[C@]4(C)C(c5cccnc5)=CC[C@@H]34)[C@@]2(C)CCC1O (some centres not stated) | ≤ 11 nM |  | 10 to 50%
35 | CC1=C2CC[C@H]3C4=CC=C(c5cccnc5)[C@@]4(C)CC[C@@H]3[C@@]2(C)CCC1O (some centres not stated) | ≤ 11 nM |  | 
36 | C[C@]12CC[C@H](O)CC1=CC[C@@H]1[C@@H]2CC[C@]2(C)C(c3cncc(F)c3)=CC[C@@H]12 | ≤ 11 nM | ≥ 50 min | ≥ 50%
37 | C[C@]1(O)CC[C@@]2(C)C(CC[C@@H]3[C@@H]2CC[C@]2(C)C(c4cccnc4)=CC[C@@H]32)C1 (some centres not stated) | ≤ 11 nM | 1 to 50 min | ≥ 50%
38 | CCNC(=O)N[C@@H]1CC[C@@]2(C)C(=CC[C@@H]3[C@@H]2CC[C@]2(C)C(c4cccnc4)=CC[C@@H]32)C1 |  | 1 to 50 min | ≥ 50%
39 | COc1cncc(C2=CC[C@H]3[C@@H]4CCC5C[C@@H](NC(C)=O)CC[C@]5(C)[C@H]4CC[C@]23C)c1 (some centres not stated) |  | 1 to 50 min | ≥ 50%
40 | Cc1cncc(C2=CC=C3[C@@H]4CCC5CC(=O)NCC[C@]5(C)[C@H]4CC[C@]23C)c1 (some centres not stated) | ≤ 11 nM |  | ≥ 50%
41 | CC1(C)C2=CC[C@H]3C4=CC=C(c5cccnc5)[C@@]4(C)CC[C@@H]3[C@@]2(C)CCC1O (some centres not stated) |  | 1 to 50 min | 10 to 50%
42 | COC(=O)N[C@H]1CC[C@@]2(C)C(CC[C@H]3C4CC=C(c5cccnc5)[C@@]4(C)CC[C@@H]32)C1 (single isomer, unassigned) |  | 1 to 50 min | ≥ 50%
43 | C[C@]12CC[C@@H](NC(=O)C3CC3)CC1CC[C@H]1C3CC=C(c4cccnc4)[C@@]3(C)CC[C@@H]12 (single isomer, unassigned) | ≤ 11 nM | 1 to 50 min | ≥ 50%
44 | CC(=O)NC1CC[C@@]2(C)C(CC[C@@H]3[C@@H]2CC[C@]2(C)C(c4cccnc4)=CC[C@@H]32)C1 (single isomer, unassigned) | ≤ 11 nM | 1 to 50 min | ≥ 50%
